The source of these data is patent US4906662A, “Phenol derivatives, their preparation and the use thereof” (Otsuka Pharmaceutical Factory, Inc., priority 1986, dated 1990).

Where a name gives a salt, the structure may show the parent alone.

The target in one assay is T1, 5-lipoxygenase (Cavia porcellus, UniProt A0A286X958).
T1 construct: endogenous in cells; host or cells: guinea pig peritoneal exudate cells (casein-elicited), intact cell suspension
T1 sequence (A0A286X958 1-674): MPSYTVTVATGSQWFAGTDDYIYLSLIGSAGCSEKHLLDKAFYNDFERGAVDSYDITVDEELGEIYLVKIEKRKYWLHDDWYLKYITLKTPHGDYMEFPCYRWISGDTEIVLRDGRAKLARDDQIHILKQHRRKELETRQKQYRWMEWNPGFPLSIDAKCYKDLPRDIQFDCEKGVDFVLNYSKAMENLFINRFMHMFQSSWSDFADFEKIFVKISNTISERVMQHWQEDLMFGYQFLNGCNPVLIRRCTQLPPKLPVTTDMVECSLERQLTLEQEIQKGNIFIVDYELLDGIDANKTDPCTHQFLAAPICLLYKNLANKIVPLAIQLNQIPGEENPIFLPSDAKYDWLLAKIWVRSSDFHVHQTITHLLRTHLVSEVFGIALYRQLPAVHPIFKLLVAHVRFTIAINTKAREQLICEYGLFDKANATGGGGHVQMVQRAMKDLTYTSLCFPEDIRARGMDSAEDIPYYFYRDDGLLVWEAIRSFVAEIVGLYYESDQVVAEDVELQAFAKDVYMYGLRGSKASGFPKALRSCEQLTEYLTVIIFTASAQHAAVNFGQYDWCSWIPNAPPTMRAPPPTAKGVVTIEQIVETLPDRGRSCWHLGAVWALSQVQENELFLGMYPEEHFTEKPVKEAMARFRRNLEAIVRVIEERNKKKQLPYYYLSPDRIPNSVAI
In words: 5-Lipoxygenase inhibitory activity (5-HETE formation in guinea pig peritoneal exudate cells). Type of assay: cell-based. Particulars: read-out: Percent inhibition of 5-lipoxygenase. Here is the method: (J. Biol. Chem., 256, 4156 (1981)) and to the method of Ochi et al. (J. Biol. Chem., 258, 5754 (1983). More specifically, 2% casein was intraperitoneally given to a guinea pig, which was bleeded to death 14 to 16 hours thereafter. The peritoneal cavity was washed to collect exudate cells, which were suspended in a phosphate buffer containing 1 mM CaCl2 and 5.5 mM glucose to a concentration of 2.5×10^7 cells/ml. The cell suspension was incubated at 30° C. for 2 minutes. The test compound was then added to the cell suspension, followed by incubation for 2 minutes. With addition of 10 μM of A23187 first and then 10 μM of ^14 C-arachidonic acid to the resulting suspension. Then, the suspension was incubated for 3 minutes. […] The arachidonic acid, 5(S)-hydroxy-6,8,11,14-eicosatetraenoic acid (5-HETE) and other portions were thereafter scraped off, and ^14 C was counted by a scintillator.

Assay [1] has as its system carrageenin-induced paw edema. In words: Anti-inflammatory activity: inhibition of carrageenin-induced paw edema in rats. As to conditions: po; 100 mg/kg p.o.; rat, 3 hours after carrageenin; read-out: Percent inhibition of edema. Type of assay: in vivo, rat (S.D. strain, male). Here is the method: (1) Anti-inflammatory activity:inhibition of carrageenin-induced paw edema in rats The compound was tested for the above activity according to the method of Winter et al. [Proc. Soc. […] One hour after the test compound was orally given to the animal, 0.1 ml of 1% carrageenin solution was subcutaneously injected into the right footpad. The paw volume was measured 3 hours thereafter, and the resulting increase in the volume was calculated based on the volume before the injection of carrageenin solution. The percent inhibition was determined in comparison with the increase in the control group.

As a reminder, the inhibition is how much of the control response was suppressed. Regarding `CC(C)(C)c1cc(Nc2ccc(N)cc2)cc(C(C)(C)C)c1O` [Compound 14], at 5-lipoxygenase, the inhibition at 1 µM came to 15% and the inhibition at 10 µM came out at 57%. In addition, the inhibition in vivo at 100 mg/kg in assay [1] was found to be 42%.
Turning to `CC(C)(C)c1cc(Nc2cccc(CO)c2)cc(C(C)(C)C)c1O` [Compound 31, 2,6-di-tert-butyl-4-(3-hydroxymethylphenylamino)phenol hydrochloride], on 5-lipoxygenase, the inhibition at 1 µM came out at 50% and the inhibition at 10 µM is 88%. Besides, the inhibition in vivo at 100 mg/kg in assay [1] worked out at 33%.
On to `CC(C)(C)c1cc(Nc2ccccc2CO)cc(C(C)(C)C)c1O` [Compound 32, 2,6-di-tert-butyl-4-(2-hydroxymethylphenylamino)phenol], for which, at 5-lipoxygenase, the inhibition at 1 µM amounted to 34% and the inhibition at 10 µM turned out to be 63%. For the same compound, in assay [1], the inhibition in vivo at 100 mg/kg was 74%.
For the compound `Cc1cc(Nc2ccccc2)c(C)c(C)c1O` [Compound 79, 2,3,6-trimethyl-4-phenylaminophenol], at 5-lipoxygenase, the inhibition at 1 µM was 87% and the inhibition at 10 µM amounted to 93%. In addition, the inhibition in vivo at 100 mg/kg in assay [1] was found to be 47%.
